The text below walks through data of patent US11447505B1, “Pyrrolo[2,3-b]pyridine compounds and their use in the treatment of cancer” (priority 2017, dated 2022).

One may read the Ki as the dissociation constant of the complex between target and ligand, obtained from inhibition or displacement.

Structures are written as SMILES. Like-named read-outs stand apart in the source and are kept apart here.

One test concerns the target ROCK2 (Homo sapiens (Human), UniProt O75116). Kind of test: ROCK2 kinase assay (IMAP fluorescence polarization). It counts as biochemical. Particulars: 1 μM ATP; read-out: ROCK2 Average Ki.
For test [1], the target named is T1, ROCK1 (Homo sapiens (Human), UniProt Q13464). Kind of test: biochemical.
A further test deals with MRCKβ (Homo sapiens (Human), UniProt Q9Y5S2). Kind of test: MRCKβ kinase assay (IMAP fluorescence polarization). In kind it is biochemical. Particulars: 1 μM ATP; read-out: MRCK-B Average Ki. The source says:
(§1) MRCKα, MRCKβ, ROCK1 and ROCK2 Kinase Assays
For orientation: Fluorescence polarisation rises when a labelled molecule tumbles more slowly, as on binding a larger partner.

Another test has as its target MRCKα (Homo sapiens (Human), UniProt Q5VT25). Kind of test: MRCKα kinase assay (IMAP fluorescence polarization). In kind it is biochemical. Particulars: 1 μM ATP; read-out: MRCK-a Average Ki.
From the text: as §1

The target in test [2] is T1, ROCK1. The following applies: read-out: ROCK1 Average Ki; 1 μM ATP.

MRCKα, sequence (Q5VT25 whole entry): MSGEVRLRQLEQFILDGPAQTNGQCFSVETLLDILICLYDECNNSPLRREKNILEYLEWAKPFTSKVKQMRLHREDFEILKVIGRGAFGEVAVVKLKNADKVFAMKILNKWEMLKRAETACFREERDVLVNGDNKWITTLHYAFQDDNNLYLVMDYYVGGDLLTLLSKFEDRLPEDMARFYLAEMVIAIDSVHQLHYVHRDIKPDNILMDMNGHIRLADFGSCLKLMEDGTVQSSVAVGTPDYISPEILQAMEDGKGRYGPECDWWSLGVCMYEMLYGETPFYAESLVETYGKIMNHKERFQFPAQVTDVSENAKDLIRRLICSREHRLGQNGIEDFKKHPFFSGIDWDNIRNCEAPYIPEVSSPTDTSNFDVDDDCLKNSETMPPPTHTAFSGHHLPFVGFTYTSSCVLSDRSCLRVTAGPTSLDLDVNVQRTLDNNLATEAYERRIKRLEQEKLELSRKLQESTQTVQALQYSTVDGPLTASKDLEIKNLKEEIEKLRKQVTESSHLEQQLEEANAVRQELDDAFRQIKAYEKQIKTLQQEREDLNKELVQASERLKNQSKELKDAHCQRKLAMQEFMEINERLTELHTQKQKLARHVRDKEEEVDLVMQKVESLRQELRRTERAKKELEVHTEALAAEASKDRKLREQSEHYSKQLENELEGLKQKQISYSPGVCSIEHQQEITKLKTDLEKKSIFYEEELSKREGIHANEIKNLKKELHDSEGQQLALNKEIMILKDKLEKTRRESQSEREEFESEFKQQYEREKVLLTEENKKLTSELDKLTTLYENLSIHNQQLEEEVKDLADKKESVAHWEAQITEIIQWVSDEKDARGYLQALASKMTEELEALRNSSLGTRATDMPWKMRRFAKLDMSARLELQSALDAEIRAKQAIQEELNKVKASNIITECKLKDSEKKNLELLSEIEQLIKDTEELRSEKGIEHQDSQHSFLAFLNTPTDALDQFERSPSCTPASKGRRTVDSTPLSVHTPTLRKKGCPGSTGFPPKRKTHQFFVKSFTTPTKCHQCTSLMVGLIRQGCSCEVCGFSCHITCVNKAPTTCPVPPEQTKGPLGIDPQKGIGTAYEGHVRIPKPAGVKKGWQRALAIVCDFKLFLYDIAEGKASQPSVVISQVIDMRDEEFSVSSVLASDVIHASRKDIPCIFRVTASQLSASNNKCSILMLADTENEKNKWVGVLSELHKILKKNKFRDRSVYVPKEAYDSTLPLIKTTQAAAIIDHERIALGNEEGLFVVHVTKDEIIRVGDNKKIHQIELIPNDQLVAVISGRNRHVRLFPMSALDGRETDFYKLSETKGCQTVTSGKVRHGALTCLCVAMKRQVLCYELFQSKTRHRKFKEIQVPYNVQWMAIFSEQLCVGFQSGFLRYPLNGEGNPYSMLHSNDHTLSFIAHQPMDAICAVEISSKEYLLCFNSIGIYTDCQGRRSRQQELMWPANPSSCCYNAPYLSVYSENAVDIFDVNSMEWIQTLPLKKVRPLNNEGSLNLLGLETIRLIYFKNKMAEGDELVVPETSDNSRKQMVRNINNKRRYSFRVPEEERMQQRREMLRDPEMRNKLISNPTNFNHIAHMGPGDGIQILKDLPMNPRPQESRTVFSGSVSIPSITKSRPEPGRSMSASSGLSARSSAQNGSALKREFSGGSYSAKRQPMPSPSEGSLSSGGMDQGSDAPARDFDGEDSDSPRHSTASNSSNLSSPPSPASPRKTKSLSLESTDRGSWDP
ROCK2, sequence (O75116 whole entry): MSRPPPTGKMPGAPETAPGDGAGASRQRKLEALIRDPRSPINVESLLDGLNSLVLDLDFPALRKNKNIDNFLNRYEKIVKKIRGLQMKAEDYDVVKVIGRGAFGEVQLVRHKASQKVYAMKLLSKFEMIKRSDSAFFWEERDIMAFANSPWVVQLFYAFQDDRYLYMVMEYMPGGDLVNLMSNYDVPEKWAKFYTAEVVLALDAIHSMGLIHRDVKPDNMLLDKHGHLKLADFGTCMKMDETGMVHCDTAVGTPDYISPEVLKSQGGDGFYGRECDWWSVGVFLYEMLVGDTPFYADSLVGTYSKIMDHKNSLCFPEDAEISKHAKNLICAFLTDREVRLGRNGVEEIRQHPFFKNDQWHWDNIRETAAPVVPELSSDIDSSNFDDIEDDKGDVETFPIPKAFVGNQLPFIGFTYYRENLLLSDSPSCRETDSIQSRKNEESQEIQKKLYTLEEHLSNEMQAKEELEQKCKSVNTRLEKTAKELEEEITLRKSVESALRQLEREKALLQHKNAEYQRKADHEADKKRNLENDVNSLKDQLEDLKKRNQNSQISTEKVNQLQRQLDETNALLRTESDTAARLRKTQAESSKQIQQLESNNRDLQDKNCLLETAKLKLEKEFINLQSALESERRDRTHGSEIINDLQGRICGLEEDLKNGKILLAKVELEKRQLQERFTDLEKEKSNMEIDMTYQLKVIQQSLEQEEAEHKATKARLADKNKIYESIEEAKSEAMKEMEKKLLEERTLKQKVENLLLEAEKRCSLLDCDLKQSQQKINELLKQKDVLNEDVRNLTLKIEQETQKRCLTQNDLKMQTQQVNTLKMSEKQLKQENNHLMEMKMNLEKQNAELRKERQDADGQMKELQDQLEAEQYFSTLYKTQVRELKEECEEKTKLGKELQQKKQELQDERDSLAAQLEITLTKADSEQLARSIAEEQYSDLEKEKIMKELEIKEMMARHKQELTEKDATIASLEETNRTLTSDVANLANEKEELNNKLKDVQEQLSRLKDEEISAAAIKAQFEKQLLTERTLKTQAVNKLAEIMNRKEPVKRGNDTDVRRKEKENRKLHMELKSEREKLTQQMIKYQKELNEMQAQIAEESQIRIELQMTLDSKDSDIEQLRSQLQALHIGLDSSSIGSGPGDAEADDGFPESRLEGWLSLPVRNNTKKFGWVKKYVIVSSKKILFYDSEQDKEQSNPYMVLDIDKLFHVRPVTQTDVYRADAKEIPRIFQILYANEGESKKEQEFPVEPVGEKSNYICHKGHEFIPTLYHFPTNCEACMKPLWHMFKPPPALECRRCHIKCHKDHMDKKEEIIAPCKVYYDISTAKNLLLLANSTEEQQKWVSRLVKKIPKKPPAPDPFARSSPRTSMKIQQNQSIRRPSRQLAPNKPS
T1 sequence (Q13464 2-1354 limits assumed): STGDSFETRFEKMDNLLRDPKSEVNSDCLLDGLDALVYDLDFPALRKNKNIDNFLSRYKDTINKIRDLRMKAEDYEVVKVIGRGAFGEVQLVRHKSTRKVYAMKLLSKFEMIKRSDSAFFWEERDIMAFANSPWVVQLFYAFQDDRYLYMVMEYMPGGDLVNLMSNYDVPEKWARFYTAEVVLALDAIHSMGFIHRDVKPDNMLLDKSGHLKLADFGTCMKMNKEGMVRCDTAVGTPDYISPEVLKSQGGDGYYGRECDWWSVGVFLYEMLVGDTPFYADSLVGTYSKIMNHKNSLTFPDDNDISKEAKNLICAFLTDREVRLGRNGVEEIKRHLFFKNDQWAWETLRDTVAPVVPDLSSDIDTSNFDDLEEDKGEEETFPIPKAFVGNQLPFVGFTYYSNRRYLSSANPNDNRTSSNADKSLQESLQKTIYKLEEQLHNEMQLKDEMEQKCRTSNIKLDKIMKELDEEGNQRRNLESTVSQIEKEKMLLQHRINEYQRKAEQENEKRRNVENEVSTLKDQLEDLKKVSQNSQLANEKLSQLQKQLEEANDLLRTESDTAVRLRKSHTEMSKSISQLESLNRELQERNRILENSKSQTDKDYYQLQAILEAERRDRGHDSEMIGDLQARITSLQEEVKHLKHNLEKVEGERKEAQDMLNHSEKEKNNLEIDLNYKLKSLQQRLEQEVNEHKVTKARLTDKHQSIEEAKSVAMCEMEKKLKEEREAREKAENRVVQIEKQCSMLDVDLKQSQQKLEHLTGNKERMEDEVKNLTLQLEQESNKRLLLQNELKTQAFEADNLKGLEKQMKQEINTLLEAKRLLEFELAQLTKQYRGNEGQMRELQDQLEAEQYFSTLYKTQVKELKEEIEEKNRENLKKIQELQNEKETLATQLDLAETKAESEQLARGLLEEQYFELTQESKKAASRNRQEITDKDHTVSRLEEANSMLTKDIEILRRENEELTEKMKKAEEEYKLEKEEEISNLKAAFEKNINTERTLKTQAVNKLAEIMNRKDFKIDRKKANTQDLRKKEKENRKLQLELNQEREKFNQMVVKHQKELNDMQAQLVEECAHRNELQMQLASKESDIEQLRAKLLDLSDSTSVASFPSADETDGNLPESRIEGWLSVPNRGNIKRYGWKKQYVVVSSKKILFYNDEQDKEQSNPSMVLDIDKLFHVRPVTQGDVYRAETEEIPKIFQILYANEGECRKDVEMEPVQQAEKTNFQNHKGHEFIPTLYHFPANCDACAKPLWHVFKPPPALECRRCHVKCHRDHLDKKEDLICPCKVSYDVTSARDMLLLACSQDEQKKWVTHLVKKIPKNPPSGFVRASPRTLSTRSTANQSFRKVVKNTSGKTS

Take `Nc1cncc(-c2c[nH]c3nccc(N4CCCCC4)c23)c1` [Example E6, 5-[4-(1-piperidyl)-1H-pyrrolo[2,3-b]pyridin-3-yl]pyridin-3-amine]: the Ki worked out at 1.9 nM at ROCK2, 3.5 nM on ROCK1 [1] and 1.11 nM on MRCKβ.

On to `N#Cc1c[nH]c2nccc(N3CCC[C@H]3CO)c12` [Example E38, 4-[(2S)-2-(hydroxymethyl)pyrrolidin-1-yl]-1H-pyrrolo[2,3-b]pyridine-3-carbonitrile], for which the Ki came to 12.7 nM at ROCK2, 16.7 nM on ROCK1 [1] and 5.08 nM on MRCKβ.

As to `N#Cc1c[nH]c2nccc(N3CCC[C@@H]3CO)c12` [Example E39, 4-[(2R)-2-(hydroxymethyl)pyrrolidin-1-yl]-1H-pyrrolo[2,3-b]pyridine-3-carbonitrile], the Ki worked out at 86.8 nM on ROCK2, 103 nM at ROCK1 [1] and 29.7 nM at MRCKβ.

`N#Cc1c[nH]c2nccc(N3CCC[C@H]3COc3ccccc3)c12` [Example E40, 4-[(2S)-2-(phenoxymethyl)pyrrolidin-1-yl]-1H-pyrrolo[2,3-b]pyridine-3-carbonitrile]: the results for the Ki on ROCK2, at ROCK1 [1] and at MRCKβ were 1070 nM, 2150 nM and 247 nM, respectively.

With `c1cc(-c2c[nH]c3nccc(N4CCC[C@H](NC5CC5)C4)c23)ncn1` [Example E41, (3S)—N-cyclopropyl-1-(3-pyrimidin-4-yl-1H-pyrrolo[2,3-b]pyridin-4-yl)piperidin-3-amine], the values for the Ki on ROCK1 [1] and at MRCKβ were 34.4 nM and 0.202 nM, respectively.

With `CN(C)C1CCCN(c2ccnc3[nH]cc(-c4cncnc4)c23)C1` (stereo not drawn) [Example E60, N,N-dimethyl-1-(3-pyrimidin-5-yl-1H-pyrrolo[2,3-b]pyridin-4-yl)piperidin-3-amine], the Ki on ROCK2 stood at 201 nM; at ROCK1 [1] it was 404 nM; at MRCKβ, 13.6 nM.

Take `Brc1cnc2[nH]cc(-c3cc[nH]n3)c2c1N1CCCCC1` [Example E70, 5-bromo-4-(1-piperidyl)-3-(1H-pyrazol-3-yl)-1H-pyrrolo[2,3-b]pyridine]: the figures for the inhibition constant Ki on ROCK2, at ROCK1 [1] and on MRCKβ were 276 nM, 1300 nM and 346 nM, respectively.

On to `CN[C@H]1CCCN(c2ccnc3[nH]cc(-c4cc[nH]n4)c23)C1` [Example E83, (3S)-N-methyl-1-[3-(1H-pyrazol-3-yl)-1H-pyrrolo[2,3-b]pyridin-4-yl]piperidin-3-amine], for which the Ki on ROCK2 amounted to 196 nM; on MRCKα, 0.481 nM; at ROCK1 [1], 1110 nM; at MRCKβ, 1.85 nM.

On to `c1ncc(-c2c[nH]c3nccc(N[C@H]4CCCNC4)c23)cn1` [Example E87, N-[(3S)-3-piperidyl]-3-pyrimidin-5-yl-1H-pyrrolo[2,3-b]pyridin-4-amine], for which the Ki was found to be 326 nM on ROCK2, 33.6 nM on MRCKα, 50300 nM on ROCK1 [1] and 54.3 nM at MRCKβ.

In the case of `OC1CCN([C@H]2CCCN(c3ccnc4[nH]cc(-c5cncnc5)c34)C2)CC1` [Example E92, 1-[(3S)-1-(3-pyrimidin-5-yl-1H-pyrrolo[2,3-b]pyridin-4-yl)-3-piperidyl]piperidin-4-ol], the Ki at ROCK2 was determined as 1510 nM; at ROCK1 [1] it was 5000 nM; at MRCKβ it was 4.97 nM.

Turning to `O[C@@H]1CCCN(c2ccnc3[nH]cc(-c4cncnc4)c23)C1` [Example E100, (3R)-1-(3-pyrimidin-5-yl-1H-pyrrolo[2,3-b]pyridin-4-yl)piperidin-3-ol], the Ki turned out to be 277 nM at ROCK2, 505 nM at ROCK1 [1] and 71.3 nM on MRCKβ.

For `c1cc(N2CCC[C@]3(CCCCN3)C2)c2c(-c3ncsn3)c[nH]c2n1` [Example E115, 3-[4-[(6R)-1,8-diazaspiro[5.5]undecan-8-yl]-1H-pyrrolo[2,3-b]pyridin-3-yl]-1,2,4-thiadiazole], the figures for the Ki at ROCK1 [1] and at MRCKβ were at least 100000 nM and 2.48 nM, respectively.

Regarding `CN1CC[C@@H]2CCN(c3ccnc4[nH]cc(-c5cncnc5)c34)C[C@@H]21` [Example E180, 4-[(3aR,7aR)-1-methyl-3,3a,4,5,7,7a-hexahydro-2H-pyrrolo[2,3-c]pyridin-6-yl]-3-pyrimidin-5-yl-1H-pyrrolo[2,3-b]pyridine], the values for the Ki on ROCK2, on ROCK1 [1] and on MRCKβ were 1580 nM, 3420 nM and 124 nM, respectively.

Regarding `c1cc(N2CCCCC2)c2c(-c3cn[nH]c3)c[nH]c2n1` [Example E183, 4-(1-piperidyl)-3-(1H-pyrazol-4-yl)-1H-pyrrolo[2,3-b]pyridine], the Ki at ROCK1 [2] came to 31 nM; at ROCK2, 12.3 nM; at MRCKα, 12.6 nM; at MRCKβ, 6.03 nM.

On to `N#Cc1c[nH]c2nccc(N3CCC4(CCCCN4)C3)c12` (stereo not drawn) [Example E184, 4-(2,6-diazaspiro[4.5]decan-2-yl)-1H-pyrrolo[2,3-b]pyridine-3-carbonitrile], for which, at ROCK1 [1], the Ki was found to be 21.9 nM.

Molecule `N#Cc1c[nH]c2nccc(N3CCC[C@]4(CCCCN4)C3)c12` [Example E186, 4-[(6R)-1,8-diazaspiro[5.5]undecan-8-yl]-1H-pyrrolo[2,3-b]pyridine-3-carbonitrile] registered a Ki on ROCK1 [1] of 347 nM.

Take `Cn1cc(-c2c[nH]c3nccc(N4CCCC5(CCCCN5)C4)c23)cn1` (stereo not drawn) [Example E188, 8-[3-(1-methylpyrazol-4-yl)-1H-pyrrolo[2,3-b]pyridin-4-yl]-1,8-diazaspiro[5.5]undecane]: the Ki on ROCK1 [2] was found to be 93.6 nM; at ROCK2, 28.8 nM; on MRCKα, 0.598 nM; at MRCKβ it was 1.52 nM.

As for `c1cnc(-c2c[nH]c3nccc(N4CCCC5(CCCCN5)C4)c23)cn1` (stereo not drawn) [Example E189, 8-(3-pyrazin-2-yl-1H-pyrrolo[2,3-b]pyridin-4-yl)-1,8-diazaspiro[5.5]undecane], the Ki on ROCK1 [2] came to 643 nM; at ROCK2, 167 nM; on MRCKα it was 0.131 nM; at MRCKβ, 1.31 nM.

Take `c1ncc(-c2c[nH]c3nccc(N4CCC5(CCCNC5)CC4)c23)cn1` [Example E193, 9-(3-pyrimidin-5-yl-1H-pyrrolo[2,3-b]pyridin-4-yl)-2,9-diazaspiro[5.5]undecane]: the Ki on ROCK1 [2] is 22.3 nM; on ROCK2, 15.2 nM; on MRCKα, 0.217 nM; at MRCKβ, 0.969 nM.

In the case of `c1ncc(-c2c[nH]c3nccc(N4CCCC5(CCCNC5)C4)c23)cn1` (stereo not drawn) [Example E194, 2-(3-pyrimidin-5-yl-1H-pyrrolo[2,3-b]pyridin-4-yl)-2,8-diazaspiro[5.5]undecane], the Ki is 83.6 nM on ROCK1 [2], 54 nM on ROCK2, 0.652 nM at MRCKα and 2.73 nM at MRCKβ.

Turning to `c1ncc(-c2c[nH]c3nccc(N4CCCC5(CCCN5)C4)c23)cn1` (stereo not drawn) [Example E195, 9-(3-pyrimidin-5-yl-1H-pyrrolo[2,3-b]pyridin-4-yl)-1,9-diazaspiro[4.5]decane], the Ki on ROCK1 [2] amounted to 332 nM; at ROCK2 it was 174 nM; at MRCKα it was 4.69 nM; at MRCKβ it was 3.27 nM.

With `c1ncc(-c2c[nH]c3nccc(N4CCCC5(CCCCN5)C4)c23)cn1` (stereo not drawn) [Example E196, 8-(3-pyrimidin-5-yl-1H-pyrrolo[2,3-b]pyridin-4-yl)-1,8-diazaspiro[5.5]undecane], the Ki at ROCK1 [2] was 213 nM; at ROCK2 it was 177 nM; at MRCKα, 5.1 nM; on MRCKβ, 134000 nM.

`N#Cc1c[nH]c2nccc(N3CC[C@@H](N)C3)c12` [Example E197, 4-[(3R)-3-aminopyrrolidin-1-yl]-1H-pyrrolo[2,3-b]pyridine-3-carbonitrile]: the Ki is 7 nM on ROCK2, 19.8 nM on ROCK1 [1] and 8.82 nM on MRCKβ.

On to `CN1CC[C@H]2CN(c3ccnc4[nH]cc(-c5cncnc5)c34)CC[C@H]21` [Example E200, 4-[(3aS,7aR)-1-methyl-3,3a,4,6,7,7a-hexahydro-2H-pyrrolo[3,2-c]pyridin-5-yl]-3-pyrimidin-5-yl-1H-pyrrolo[2,3-b]pyridine], for which the Ki on ROCK2 was 145 nM; on ROCK1 [1] it was 196 nM; on MRCKβ it was 3.13 nM.

On to `CN1CCCN(C(=O)[C@@H]2CCCN2c2ccnc3[nH]cc(C#N)c23)CC1` [Example E201, 4-[(2S)-2-(4-methyl-1,4-diazepane-1-carbonyl)pyrrolidin-1-yl]-1H-pyrrolo[2,3-b]pyridine-3-carbonitrile], for which the results for the Ki on ROCK2, on ROCK1 [1] and on MRCKβ were 703 nM, 1050 nM and 147 nM, respectively.

Consider `c1ncc(-c2c[nH]c3nccc(OC[C@@H]4CCCNC4)c23)cn1` [Example E214, 4-[[(3R)-3-piperidyl]methoxy]-3-pyrimidin-5-yl-1H-pyrrolo[2,3-b]pyridine], for which the Ki at ROCK2 came out at 32.1 nM; on ROCK1 [1], 42 nM; at MRCKβ, 1.07 nM.

Take `c1ncc(-c2c[nH]c3nccc(OC4CCCNCC4)c23)cn1` (stereo not drawn) [Example E216, 4-(azepan-4-yloxy)-3-pyrimidin-5-yl-1H-pyrrolo[2,3-b]pyridine]: the Ki at ROCK1 [2] amounted to 66.8 nM; at ROCK2 it was 55.8 nM; on MRCKα it was 1.13 nM; on MRCKβ, 1.78 nM.

Take `c1ncc(-c2c[nH]c3nccc(OC[C@@H]4CCNC4)c23)cn1` [Example E219, 3-pyrimidin-5-yl-4-[[(3R)-pyrrolidin-3-yl]methoxy]-1H-pyrrolo[2,3-b]pyridine]: the Ki at ROCK1 [2] stood at 57.6 nM; on ROCK2, 52.6 nM; at MRCKα, 2.52 nM; at MRCKβ, 3.71 nM.

Consider `c1ncc(-c2c[nH]c3nccc(O[C@H]4CCCNC4)c23)cn1` [Example E222, 4-[[(3S)-3-piperidyl]oxy]-3-pyrimidin-5-yl-1H-pyrrolo[2,3-b]pyridine], for which the Ki at ROCK1 [2] is 50900 nM; at ROCK2 it was 50700 nM; at MRCKα, 28.4 nM; at MRCKβ, 50.6 nM.
